Laboratory results reported in paper PMC11364775, “Ion occupancy of the selectivity filter controls opening of a cytoplasmic gate in the K2P channel TALK-2” (Nature Communications, 2024).

Legend:
WT TALK-2 channels = biological target: T1, WT TALK-2 channels (Homo sapiens, UniProt Q96T54); assay: Conductance-voltage (G-V) curves from tail currents, V1/2 (intracellular Rb+); type: cell-based; set-up: expressed in transfected cells; host or cells: Xenopus laevis oocytes (cRNA injection), excised inside-out patches; settings: for Normalized current: TALK-2 WT + 1 mM 2-APB
T1 sequence (Q96T54 1-332): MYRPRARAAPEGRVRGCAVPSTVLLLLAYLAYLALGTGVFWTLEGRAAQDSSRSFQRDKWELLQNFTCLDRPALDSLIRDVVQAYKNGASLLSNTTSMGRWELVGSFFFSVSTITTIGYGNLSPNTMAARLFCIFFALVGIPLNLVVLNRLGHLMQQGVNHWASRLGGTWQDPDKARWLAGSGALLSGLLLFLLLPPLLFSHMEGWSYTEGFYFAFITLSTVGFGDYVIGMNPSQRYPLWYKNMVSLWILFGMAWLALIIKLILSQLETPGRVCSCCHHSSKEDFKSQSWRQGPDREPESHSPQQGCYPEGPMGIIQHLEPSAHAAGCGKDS
From the text: The voltage-dependent activation mechanism of the SF gate in K2P channels allows to estimate the electrical work (ΔG = zFΔV1/2) required for pore opening by fitting the G–V curve to a Boltzmann equation. […] The open state represents the situation of both gates being simultaneously open but voltage can only exert force on the SF gate that functions as voltage sensor. […] We further tested whether mutations that open the lower gate (L262A and L264A) would affect the extracellular pH sensitivity. […] We further explored this concept of allosteric coupling using the mutations identified in the functional alanine screen of TM2 and TM4. […]
Conductance-voltage (G–V) relationships were determined from tail currents recorded at a holding potential (VH) of −80 mV after 300 ms depolarizing steps as indicated in the respective figure legend. Data were analyzed with a single Boltzmann fit following Eq. 6:6 GV=Imax/1+e^V−V1/2/slope+Ibase where V1/2 represents the voltage of half-maximal activation, s is the slope factor and Imax and Ibase represent the upper and lower asymptotes. Under appropriate experimental conditions, you can use slope to calculate the valence (charge) of the ion moving across the channel. Slope equals R * T/ z * F where R is the universal gas constant, T is temperature in K, F is the Faraday constant, and z is the valence.

[1] = biological target: T2, WT TALK-2 channels (human K2P17.1) (Homo sapiens, UniProt Q96T54); assay: Inside-out patch-clamp, ligand activation of channel currents at +40 mV (oocytes)
T2 sequence (Q96T54 1-332): T1 sequence (Q96T54 1-332)
Method: Oocytes were surgically removed from anesthetized adult females, treated with type II collagenase (Sigma-Aldrich/Merck, Germany) and manually defolliculated. 50 nl of a solution containing the K^+ channel specific cRNA was injected into Dumont stage V - VI oocytes and subsequently incubated at 17 °C in a solution containing (mM): 54 NaCl, 30 KCl, 2.4 NaHCO3, 0.82 MgSO4 x 7 H2O, 0.41 CaCl2, 0.33 Ca(NO3)2 x 4 H2O and 7.5 TRIS (pH 7.4 adjusted with NaOH/HCl) for 1–7 days before use. Electrophysiological recordings: Excised patch measurements in inside-out configuration under voltage-clamp conditions were performed at room temperature (22 – 24 °C). […] Intracellular bath solutions and compounds were applied to the cytoplasmic side of excised patches for the various K^+ channels via a gravity flow multi-barrel pipette system. Intracellular solution had the following composition (in mM): 120 KCl, 10 HEPES, 2 EGTA and 1 Pyrophosphate (pH adjusted with KOH/HCl). In other intracellular bath solutions, K^+ was replaced by Rb^+ (pH 7.4 adjusted with RbOH/HCl). Currents were recorded with an EPC10 amplifier (HEKA electronics, Germany) and sampled at 10 kHz or higher and filtered with 3 kHz (-3 dB) or higher as appropriate for sampling rate.
Recorded currents were analyzed from stable membrane patches at a voltage defined in the respective figure legend or with a voltage protocol as indicated in the respective figure. The fold activation (fold change in (tail) current amplitude) of a ligand (drug or bioactive lipid) was calculated from Eq. 1:1 Fold activationFA=Iactivated/Ibasal where Iactivated represents the stable current level in the presence of a given concentration of a respective ligand and Ibasal the measured current before ligand application. Percentage inhibition or residual currents upon blocker application for a ligand (drug or bioactive lipid) was calculated from stable currents of excised membrane patches using the following Eqs. 2 and 3:2 %inhibition=1−Iinhibited/Ibasal*100 3 Residual current=100−%inhibition where Iinhibited refers to the stable current level recorded in the presence of a given concentration of a drug or bioactive lipid and Ibasal to the measured current before ligand application. The macroscopic half-maximal concentration-inhibition relationship of a ligand was obtained using a Hill-fit for dose-response curves as depicted in Eq. 4:4 %inhibition/activation=Ibase+Imax−Ibase/1+x1/2/x^rate where base and max are the currents in the absence and presence of a respective ligand, x is the concentration of the ligand, x1/2 is the ligand concentration at which the activatory or inhibitory effect is half-maximal, rate is the Hill coefficient.

V1/2 shift (mV) (WT TALK-2 channels; 1 mM 2-APB, shift of G-V curve): 26.9 mV | Normalized current (WT TALK-2 channels; Voltage 0.000): 0.204 | Normalized current (WT TALK-2 channels; Voltage 0.005): 0.227 | Normalized current (WT TALK-2 channels; Voltage 0.010): 0.255 | Normalized current (WT TALK-2 channels; Voltage 0.015): 0.290 | Normalized current (WT TALK-2 channels; Voltage 0.020): 0.331 | Normalized current (WT TALK-2 channels; Voltage 0.025): 0.376 | Normalized current (WT TALK-2 channels; Voltage 0.030): 0.427 | Normalized current (WT TALK-2 channels; Voltage 0.035): 0.474 | Normalized current (WT TALK-2 channels; Voltage 0.040): 0.520 | Normalized current (WT TALK-2 channels; Voltage 0.045): 0.565 | Normalized current (WT TALK-2 channels; Voltage 0.050): 0.611 | Normalized current (WT TALK-2 channels; Voltage 0.055): 0.652 | Normalized current (WT TALK-2 channels; Voltage 0.060): 0.689 | Normalized current (WT TALK-2 channels; Voltage 0.065): 0.723 | Normalized current (WT TALK-2 channels; Voltage 0.070): 0.754 | Normalized current (WT TALK-2 channels; Voltage 0.075): 0.784 | Normalized current (WT TALK-2 channels; Voltage 0.080): 0.809 | Normalized current (WT TALK-2 channels; Voltage 0.085): 0.834 | Normalized current (WT TALK-2 channels; Voltage 0.090): 0.854 | Normalized current (WT TALK-2 channels; Voltage 0.095): 0.872 | Normalized current (WT TALK-2 channels; Voltage 0.100): 0.891 | Normalized current (WT TALK-2 channels; Voltage 0.105): 0.905 | Normalized current (WT TALK-2 channels; Voltage 0.110): 0.919 | Normalized current (WT TALK-2 channels; Voltage 0.115): 0.931 | Normalized current (WT TALK-2 channels; Voltage 0.120): 0.943 | Normalized current (WT TALK-2 channels; Voltage 0.125): 0.952 | Normalized current (WT TALK-2 channels; Voltage 0.130): 0.961 | Normalized current (WT TALK-2 channels; Voltage 0.135): 0.972 | Normalized current (WT TALK-2 channels; Voltage 0.140): 0.971 | Normalized current (WT TALK-2 channels; Voltage 0.145): 0.979 | Normalized current (WT TALK-2 channels; Voltage 0.150): 0.985 | Normalized current (WT TALK-2 channels; Voltage 0.155): 0.989 | Normalized current (WT TALK-2 channels; Voltage 0.160): 0.992 | Normalized current (WT TALK-2 channels; Voltage -0.005): 0.187 | Normalized current (WT TALK-2 channels; Voltage -0.010): 0.175 | Normalized current (WT TALK-2 channels; Voltage -0.015): 0.167 | Normalized current (WT TALK-2 channels; Voltage -0.020): 0.158 | Normalized current (WT TALK-2 channels; Voltage -0.025): 0.153 | Normalized current (WT TALK-2 channels; Voltage -0.030): 0.148 | Normalized current (WT TALK-2 channels; Voltage -0.035): 0.143 | Normalized current (WT TALK-2 channels; Voltage -0.040): 0.140 | Normalized current (WT TALK-2 channels; Voltage -0.045): 0.136 | Normalized current (WT TALK-2 channels; Voltage -0.050): 0.131 | Normalized current (WT TALK-2 channels; Voltage -0.055): 0.128 | Normalized current (WT TALK-2 channels; Voltage -0.060): 0.125 | Normalized current (WT TALK-2 channels; Voltage -0.065): 0.121 | Normalized current (WT TALK-2 channels; Voltage -0.070): 0.118 | Normalized current (WT TALK-2 channels; Voltage -0.075): 0.115 | Normalized current (WT TALK-2 channels; Voltage -0.080): 0.114 | Normalized current (WT TALK-2 channels; Voltage -0.085): 0.112 | Normalized current (WT TALK-2 channels; Voltage -0.090): 0.113 | Normalized current (WT TALK-2 channels; Voltage -0.095): 0.112 | Normalized current (WT TALK-2 channels; Voltage -0.100): 0.112 | Normalized current (WT TALK-2 channels; Voltage -0.105): 0.111 | Normalized current (WT TALK-2 channels; Voltage -0.110): 0.110 | Normalized current (WT TALK-2 channels; Voltage -0.115): 0.110 | Normalized current (WT TALK-2 channels; Voltage -0.120): 0.111 | V1/2 (WT TALK-2 channels; TALK-2 WT, 1 mM ligand): 44.7 mV | EC50 [1]: 421 ± 34 µM | Fold activation 1 mM 2-APB ([1]; 1 mM, TALK-2 WT): 26.51 fold | Normalized currents ([1]; TALK-2 WT, 0.1 µM 2-APB): 0.04 | Normalized currents ([1]; TALK-2 WT, 1 µM 2-APB): 0.04 | Normalized currents ([1]; TALK-2 WT, 10 µM 2-APB): 0.05 | Normalized currents ([1]; TALK-2 WT, 100 µM 2-APB): 0.19 | Normalized currents ([1]; TALK-2 WT, 500 µM 2-APB): 0.58 | Normalized currents ([1]; TALK-2 WT, 1000 µM 2-APB): 0.87 | Normalized currents ([1]; TALK-2 WT, 2000 µM 2-APB): 1.00
Compound: NCCOB(c1ccccc1)c1ccccc1 [2-APB, 2-aminoethoxydiphenyl borate]
